The source of these data is ChEMBL document CHEMBL1146792, “Antimitotic activity of glaupalol-related coumarins from Glaucidium palmatum” (Bioorg Med Chem Lett, 2004).

≈ marks a conversion by molar mass, not a printed value.

One experiment concerns the target Tubulin alpha chain (Sus scrofa, UniProt P02550). The experiment is described as follows: Inhibition of the polymerization of tubulin. It is filed as functional.
The next experiment concerns KB. In words: Compound was tested for cytotoxicity against human KB cells. It is filed as functional, cell-based.

Tubulin alpha chain, sequence (P02550 whole entry, looked up): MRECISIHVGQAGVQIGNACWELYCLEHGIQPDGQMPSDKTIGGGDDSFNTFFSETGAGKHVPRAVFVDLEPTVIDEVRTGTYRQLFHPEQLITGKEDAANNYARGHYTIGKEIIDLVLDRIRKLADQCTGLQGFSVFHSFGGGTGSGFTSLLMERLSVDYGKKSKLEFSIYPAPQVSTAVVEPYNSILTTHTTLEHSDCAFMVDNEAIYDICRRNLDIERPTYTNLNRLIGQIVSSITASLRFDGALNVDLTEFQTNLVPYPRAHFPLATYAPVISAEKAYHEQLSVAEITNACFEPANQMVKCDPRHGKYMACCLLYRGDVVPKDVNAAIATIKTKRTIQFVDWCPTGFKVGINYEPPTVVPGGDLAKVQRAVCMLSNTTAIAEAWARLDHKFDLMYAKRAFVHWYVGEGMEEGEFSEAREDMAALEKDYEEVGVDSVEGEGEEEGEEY

As to `CC(=O)OC[C@@]1(C)c2c(c3c(C)c(O)ccc3oc2=O)O[C@H]1C`, the IC50 (commonly the concentration needed to halve the response being measured) against Tubulin alpha chain turned out to be 10 µM; with KB, 23 µg/mL (≈ 72.3 µM).
Regarding `Cc1c(O)ccc2oc(=O)c3c(c12)OC(C)C3(C)C` (centres undefined), the IC50 with KB worked out at 1.5 µg/mL (≈ 5.76 µM).
The compound `COc1cc(=O)oc2ccc(O)c(C)c12` returned an IC50 with KB of 4.8 µg/mL (≈ 23.3 µM).
`Cc1c(O)ccc2oc(=O)c3c(c12)O[C@H](C)[C@@]3(C)CO` came in with an IC50 in the experiment on KB of 4.3 µg/mL (≈ 15.6 µM). This IC50 and that of the compound before are within 1.5-fold of each other.
The compound `Cc1c(O)ccc2oc(=O)c3c(c12)O[C@@H](C)[C@@]3(C)CO` gave an IC50 in the experiment on KB of 5.7 µg/mL (≈ 20.6 µM).
In the case of `CC(=O)OC[C@@]1(C)c2c(c3c(C)c(O)ccc3oc2=O)O[C@@H]1C`, the IC50 against Tubulin alpha chain amounted to 30 µM; in the experiment with KB, 17 µg/mL (≈ 53.4 µM).
As for `Cc1c(OC2O[C@H](CO)[C@@H](O)[C@H](O)[C@H]2O)ccc2oc(=O)c3c(c12)OC(C)C3(C)C` (single isomer, unassigned), the IC50 with KB is 6.7 µg/mL (≈ 15.9 µM).
